PMC7579925, “Complementary NAD^+ replacement strategies fail to functionally protect dystrophin-deficient muscle” (Skeletal Muscle, 2020)

Molecular target: T1, CD38 (Mus musculus, UniProt P56528)
T1 construct: recombinant soluble (extracellular) domain, expressed in and purified from Pichia pastoris
T1 sequence (P56528 45-304 limits assumed): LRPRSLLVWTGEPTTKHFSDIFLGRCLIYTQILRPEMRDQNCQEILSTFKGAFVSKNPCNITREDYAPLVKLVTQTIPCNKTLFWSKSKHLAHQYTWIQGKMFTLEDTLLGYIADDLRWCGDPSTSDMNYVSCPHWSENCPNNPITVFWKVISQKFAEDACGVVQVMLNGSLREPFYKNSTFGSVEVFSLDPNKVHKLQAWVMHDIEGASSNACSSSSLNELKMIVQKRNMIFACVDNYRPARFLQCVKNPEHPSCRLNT
Assay: colorimetric base-exchange (transglycosidation) assay, dose-response
Format: biochemical

IC50: ~ 12 ng/mL
Substance: GSK978A
